Experiment: Serum concentration and pharmacokinetics of SCI after oral gavage in Wistar rats
Format: in vivo, Wistar rat
Experimental: All procedures were performed according to the Local Ethical Committee of Experiments on Animals guidelines in Olsztyn, Poland. The experiment was conducted in the same way as described by Antonowski et al.. Briefly, the experiment was performed on male Wistar rats (n = 6). Rats were maintained in ventilated rooms under a standard day photoperiod (12:12 h light–dark) as well as with lights on from 700 to 1900 h at 21 °C. All rats had free access to food and water. At 42 days of age, rats were randomized into experimental groups (Table 1 and Table 4).
Before the administration of cyclitol (10 mg/kg), the rats were fasting for 12 h (Table 1). […] Access to water was unlimited during the experiments. The study group (n = 6) was divided into two subgroups (n = 3 rats per subgroup). This practice allows for the use of only 6 rats for the entire experiment in accordance with the 3 Rs principle. Rats received the compound at a dose of 10 mg/kg body weight. Rats were weighed before starting the compound administration. Cyclitol was administered to the rats from the study group using a stainless-steel gastric tube with a ball tip (manufacturer—Agnthos, curved gastric tube, 16G, 3 mm tip, 75 mm). Cyclitol was dissolved in distilled water to a maximum volume of 1 mL. The prepared solution was administered to the animal.
Blood samples were collected into Eppendorf tubes and were centrifuged at 2500× g for 10 min at 8 °C the following day. Blood was harvested from the tail at a specific time. […] Serum was stored at −80 °C for subsequent analyses.
The analysis is described in detail by Antonowski and co-workers. Briefly, the first step was to remove the protein, then concentrate the sample in a speed vacuum evaporator to dryness. Next, samples were analyzed using the high-resolution gas chromatography method. We used a gas chromatograph GC2010Plus (Shimadzu, Tokyo, Japan) with a capillary column ZEBRON ZB-1 (15 m length, 0.25 mm diameter, and 0.1 μm film thickness, Phenomenex, Torrance, CA, USA). Helium was used as a carrier gas (at a flow rate of 1.18 mL min^−1). […] Finally, scyllo-inositol was quantified by using a standard.
The PK parameters were calculated using PK Solver. PKSolver is an add-in program for pharmacokinetic and pharmacodynamic data analysis […]. […] The area under the drug concentration–time curve from time zero to the time of the last quantifiable concentration (AUClast) was calculated using the trapezoidal rule. The volume over which the drug was distributed (Vd) and clearance (CL) were conducted by PK Solver. […] Nevertheless, we estimated K by log-linear regression analysis on data points on the terminal log-linear phase. Noncompartmental analysis is generally the preferred methodology to use in that it requires fewer assumptions than model-based approaches. We presented the results for individual rats, subgroups of rats, and for all subjects studied. The content of scyllo-inositol was calculated from the standard curves of appropriate components. To determine the terminal phase, […] was sufficient.
An analysis of all parameters was carried out with GraphPad Prism software (Version 10 Graph Pad Software Inc., La Jolla, CA, USA). Data are expressed as means ± SEM or individual data. Briefly, AUClast was calculated using the trapezoidal method. The T0.5 of oral administration was calculated as 0.693/K.

[1] = Mean of rats 1–3 ± SEM, serum, oral 10 mg/kg

CL [1]: 0.112 ± 0.008 (95%CI: 0.145–0.079) L/h | Vd [1]: 4.182 ± 2.287 (95%CI: 14.02–(−5.656)) L | CL (Mean of rats 4–6 ± SEM, serum, oral 10 mg/kg): 0.216 ± 0.055 (95%CI: 0.451–(−0.02)) L/h | CL (Rat No 1, serum, oral 10 mg/kg): 0.1 L/h | Vd (Rat No 1, serum, oral 10 mg/kg): 0.039 L | CL (Rat No 2, serum, oral 10 mg/kg): 0.11 L/h | Vd (Rat No 2, serum, oral 10 mg/kg): 7.93 L | CL (Rat No 3, serum, oral 10 mg/kg): 0.126 L/h | Vd (Rat No 3, serum, oral 10 mg/kg): 4.578 L | CL (Rat No 4, serum, oral 10 mg/kg): 0.325 L/h | Vd (Rat No 4, serum, oral 10 mg/kg): 0.358 L | CL (Rat No 5, serum, oral 10 mg/kg): 0.16 L/h | Vd (Rat No 5, serum, oral 10 mg/kg): 0.9967 L | CL (Rat No 6, serum, oral 10 mg/kg): 0.162 L/h | Vd (Rat No 6, serum, oral 10 mg/kg): 0.566 L | Concentration of SCI in serum (Rat No. 1, time 0 h, oral 10 mg/kg): BLQ | Concentration of SCI in serum (Rat No. 1, time 0.25 h, oral 10 mg/kg): BLQ | Concentration of SCI in serum (Rat No. 1, time 12 h, oral 10 mg/kg): BLQ | Concentration of SCI in serum (Rat No. 1, time 24 h, oral 10 mg/kg): BLQ | Concentration of SCI in serum (Rat No. 2, time 0 h, oral 10 mg/kg): BLQ | Concentration of SCI in serum (Rat No. 2, time 0.25 h, oral 10 mg/kg): BLQ | Concentration of SCI in serum (Rat No. 2, time 12 h, oral 10 mg/kg): BLQ | Concentration of SCI in serum (Rat No. 2, time 24 h, oral 10 mg/kg): BLQ | Concentration of SCI in serum (Rat No. 3, time 0 h, oral 10 mg/kg): BLQ | Concentration of SCI in serum (Rat No. 3, time 0.25 h, oral 10 mg/kg): BLQ | Concentration of SCI in serum (Rat No. 3, time 12 h, oral 10 mg/kg): BLQ | Concentration of SCI in serum (Rat No. 3, time 24 h, oral 10 mg/kg): BLQ | Concentration of SCI in serum (Rat No. 4, time 36 h, oral 10 mg/kg): BLQ | Concentration of SCI in serum (Rat No. 4, time 48 h, oral 10 mg/kg): BLQ | Concentration of SCI in serum (Rat No. 5, time 36 h, oral 10 mg/kg): BLQ | Concentration of SCI in serum (Rat No. 5, time 48 h, oral 10 mg/kg): BLQ | Concentration of SCI in serum (Rat No. 6, time 36 h, oral 10 mg/kg): BLQ | Concentration of SCI in serum (Rat No. 6, time 48 h, oral 10 mg/kg): BLQ | concentration at 0 min (male, Wistar, rat, serum, oral, 10 mg/kg, Mean concentration of SCI in serum, at the point of administration (0 min), rats 1–3): 0 ng/mL | concentration at 0.5 h (male, Wistar, rat, serum, po, 10 mg/kg, Concentration of SCI in serum, Rat No. 1, oral 10 mg/kg): 1000 ng/mL | concentration at 1 h (male, Wistar, rat, serum, po, 10 mg/kg, Concentration of SCI in serum, Rat No. 1, time 1 h, oral 10 mg/kg): 1600 ng/mL | concentration at 1.5 h (male, Wistar, rat, serum, po, 10 mg/kg, Concentration of SCI in serum, Rat No. 1, time 1.5 h, oral 10 mg/kg): 7200 ng/mL | concentration at 0.5 h (male, Wistar, rat, serum, po, 10 mg/kg, Concentration of SCI in serum, Rat No. 2, oral 10 mg/kg): 4600 ng/mL | concentration at 1 h (male, Wistar, rat, serum, po, 10 mg/kg, Concentration of SCI in serum, Rat No. 2, time 1 h, oral 10 mg/kg): 5600 ng/mL | concentration at 1.5 h (male, Wistar, rat, serum, po, 10 mg/kg, Concentration of SCI in serum, Rat No. 2, time 1.5 h, oral 10 mg/kg): 6200 ng/mL | concentration at 0.5 h (male, Wistar, rat, serum, po, 10 mg/kg, Concentration of SCI in serum, Rat No. 3, oral 10 mg/kg): 5600 ng/mL | concentration at 1 h (male, Wistar, rat, serum, po, 10 mg/kg, Concentration of SCI in serum, Rat No. 3, time 1 h, oral 10 mg/kg): 6800 ng/mL | concentration at 1.5 h (male, Wistar, rat, serum, po, 10 mg/kg, Concentration of SCI in serum, Rat No. 3, time 1.5 h, oral 10 mg/kg): 4400 ng/mL | concentration at 2 h (male, Wistar, rat, serum, po, 10 mg/kg, Concentration of SCI in serum, Rat No. 4, time 2 h, oral 10 mg/kg): 3200 ng/mL | concentration at 4 h (male, Wistar, rat, serum, po, 10 mg/kg, Concentration of SCI in serum, Rat No. 4, time 4 h, oral 10 mg/kg): 600 ng/mL | concentration at 8 h (male, Wistar, rat, serum, po, 10 mg/kg, Concentration of SCI in serum, Rat No. 4, time 8 h, oral 10 mg/kg): 400 ng/mL | concentration at 2 h (male, Wistar, rat, serum, po, 10 mg/kg, Concentration of SCI in serum, Rat No. 5, time 2 h, oral 10 mg/kg): 3800 ng/mL | concentration at 4 h (male, Wistar, rat, serum, po, 10 mg/kg, Concentration of SCI in serum, Rat No. 5, time 4 h, oral 10 mg/kg): 6100 ng/mL | concentration at 8 h (male, Wistar, rat, serum, po, 10 mg/kg, Concentration of SCI in serum, Rat No. 5, time 8 h, oral 10 mg/kg): 200 ng/mL | concentration at 2 h (male, Wistar, rat, serum, po, 10 mg/kg, Concentration of SCI in serum, Rat No. 6, time 2 h, oral 10 mg/kg): 5400 ng/mL | concentration at 4 h (male, Wistar, rat, serum, po, 10 mg/kg, Concentration of SCI in serum, Rat No. 6, time 4 h, oral 10 mg/kg): 3600 ng/mL | concentration at 8 h (male, Wistar, rat, serum, po, 10 mg/kg, Concentration of SCI in serum, Rat No. 6, time 8 h, oral 10 mg/kg): 400 ng/mL | concentration at 30 min (male, Wistar, rat, serum, po, 10 mg/kg, Mean concentration of SCI in serum, 30 min after oral 10 mg/kg, mean of rats 1–3): 3730 ng/mL | concentration at 1 h (male, Wistar, rat, serum, po, 10 mg/kg, Mean concentration of SCI in serum, 1 h after oral 10 mg/kg, mean of rats 1–3): 4670 ng/mL | concentration at 1.5 h (male, Wistar, rat, serum, po, 10 mg/kg, Mean concentration of SCI in serum, 1.5 h after oral 10 mg/kg, mean of rats 1–3): 5930 ng/mL | concentration at 2 h (male, Wistar, rat, serum, po, 10 mg/kg, Mean concentration of SCI in serum, 2 h after oral 10 mg/kg, mean of rats 4–6): 4130 ng/mL | concentration at 4 h (male, Wistar, rat, serum, po, 10 mg/kg, Mean concentration of SCI in serum, 4 h after oral 10 mg/kg, mean of rats 4–6): 3430 ng/mL | concentration at 8 h (male, Wistar, rat, serum, po, 10 mg/kg, Mean concentration of SCI in serum, 8 h after oral 10 mg/kg, mean of rats 4–6): 330 ng/mL | concentration at 12 h (male, Wistar, rat, serum, po, 10 mg/kg, Mean concentration of SCI in serum, 12 h after oral 10 mg/kg, rats 1–3): 0 ng/mL
Compound: O[C@H]1[C@H](O)[C@@H](O)[C@H](O)[C@@H](O)[C@@H]1O [SCI, scyllo-inositol]

— paper PMC12299890 (Pharmaceuticals, 2025)
